Data taken from US20240109853A1 (Shanghai Yao Yuan Biotechnology Co., Ltd., priority 2020, published 2024).

How the values were obtained:
[1] = tested on: ALPK1-dependent NFκB reporter gene activation in HEK293 cells stably expressing an NF-kB reporter (G9 cells); assay: NFκB gene reporter alkaline phosphatase assay; type: cell-based; conditions: Homo sapiens, HEK293; read-out: NFkB assay IC50
Method in brief: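 Read-out: chromogenic pNPP turnover by NF-kB-driven alkaline phosphatase in G9 cells (HEK293, stable reporter). Compound pre-incubation 30 min before agonist D-glycero-D-manno-6-fluoro-heptose-1β-S-ADP. IC50 by four-parameter logistic regression.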

ALPK1 = ALPK1 (Homo sapiens (Human), UniProt Q96QP1); assay: ALPK1 in vitro kinase assay (HTRF of TIFA phosphorylation); type: biochemical
ALPK1, sequence (Q96QP1 whole entry): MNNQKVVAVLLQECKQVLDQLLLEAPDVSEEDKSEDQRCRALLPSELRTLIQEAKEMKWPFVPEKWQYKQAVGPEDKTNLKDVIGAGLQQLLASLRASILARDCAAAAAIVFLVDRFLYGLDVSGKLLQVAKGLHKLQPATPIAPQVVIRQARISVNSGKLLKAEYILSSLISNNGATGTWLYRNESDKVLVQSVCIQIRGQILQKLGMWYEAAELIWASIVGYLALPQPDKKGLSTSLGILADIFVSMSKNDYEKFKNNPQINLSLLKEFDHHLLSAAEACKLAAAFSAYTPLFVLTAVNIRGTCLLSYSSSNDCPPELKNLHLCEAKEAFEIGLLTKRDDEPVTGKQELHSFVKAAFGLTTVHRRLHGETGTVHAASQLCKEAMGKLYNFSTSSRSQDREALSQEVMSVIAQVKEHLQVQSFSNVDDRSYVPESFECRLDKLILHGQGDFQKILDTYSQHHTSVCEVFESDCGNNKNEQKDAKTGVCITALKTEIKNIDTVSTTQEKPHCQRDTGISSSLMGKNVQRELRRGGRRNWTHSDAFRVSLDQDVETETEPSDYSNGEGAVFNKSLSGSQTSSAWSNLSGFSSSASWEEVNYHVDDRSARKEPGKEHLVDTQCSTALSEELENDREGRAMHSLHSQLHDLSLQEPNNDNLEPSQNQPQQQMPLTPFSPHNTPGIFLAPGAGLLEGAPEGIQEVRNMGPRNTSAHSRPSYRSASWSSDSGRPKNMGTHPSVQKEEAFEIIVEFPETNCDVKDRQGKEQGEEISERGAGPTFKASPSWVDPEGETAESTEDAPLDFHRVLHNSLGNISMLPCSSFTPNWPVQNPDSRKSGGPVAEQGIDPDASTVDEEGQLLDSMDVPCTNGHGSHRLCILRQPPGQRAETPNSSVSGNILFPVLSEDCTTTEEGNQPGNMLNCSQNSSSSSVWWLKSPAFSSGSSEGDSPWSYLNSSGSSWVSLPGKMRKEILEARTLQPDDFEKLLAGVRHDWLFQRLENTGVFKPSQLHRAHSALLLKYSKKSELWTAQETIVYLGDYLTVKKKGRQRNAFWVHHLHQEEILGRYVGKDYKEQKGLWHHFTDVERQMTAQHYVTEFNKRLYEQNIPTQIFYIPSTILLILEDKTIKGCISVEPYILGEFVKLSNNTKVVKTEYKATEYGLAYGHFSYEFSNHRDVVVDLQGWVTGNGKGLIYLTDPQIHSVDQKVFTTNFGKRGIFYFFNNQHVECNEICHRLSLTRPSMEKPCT

| Compound | IC50 [1] | IC50 (ALPK1) |
| --- | --- | --- |
| COc1ccc(C(C)(C)c2csc(NC(=O)NCCCCN3CCC(N)C3)n2)cc1 (stereo not shown) [Example A077, 1-(4-(3-aminopyrrolidin-1-yl)butyl)-3-(4-(2-(4-methoxyphenyl)propan-2-yl)thiazol-2-yl)urea] | 2970 nM | 180 nM |
| CC(C)(c1ccc(Br)cc1)c1csc(NC(=O)NCc2cnc(N3CCC(O)C3)nc2)n1 (stereo not shown) [Example A079, 1-(4-(2-(4-bromophenyl)propan-2-yl)thiazol-2-yl)-3-((2-(3-hydroxypyrrolidin-1-yl)pyrimidin-5-yl)methyl)urea] | 1680 nM | 170 nM |
| COc1ncc(CNC(=O)Nc2nc(C(C)(C)c3ccc(Br)cc3)cs2)cn1 [Example A080, 1-(4-(2-(4-bromophenyl)propan-2-yl)thiazol-2-yl)-3-((2-methoxypyrimidin-5-yl)methyl)urea] | 13300 nM | 172 nM |
| CC(C)(c1ccc(Br)cc1)c1csc(NC(=O)NCc2cnc(NCCN)nc2)n1 [Example A081, 1-((2-((2-aminoethyl)amino)pyri-midin-5-yl)methyl)-3-(4-(2-(4-bromophenyl)propan-2-yl)thiazol-2-yl)urea] | 1840 nM | 17 nM |
| CC(C)(c1ccc(Br)cc1)c1csc(NC(=O)NCc2cnc(N3CCC(O)CC3)nc2)n1 [Example A082, 1-(4-(2-(4-bromophenyl)propan-2-yl)thiazol-2-yl)-3-((2-(4-hydroxypiperidin-1-yl)pyrimidin-5-yl)methyl)urea] | 6150 nM | 125 nM |
| COc1ccc(C(C)(C)c2csc(NC(=O)NCc3cnc(N4CCC(O)C4)nc3)n2)cc1 (stereo not shown) [Example A083, 1-((2-(3-hydroxypyrrolidin-1-yl)pyrimidin-5-yl)methyl)-3-(4-(2-(4-methoxyphenyl)propan-2-yl)thiazol-2-yl)urea] | 680 nM | 111 nM |
| CC(C)(c1ccc(Cl)cc1)c1csc(NC(=O)NCc2cnc(N3CCNCC3)nc2)n1 [Example A084, 1-(4-(2-(4-chlorophenyl)propan-2-yl)thiazol-2-yl)-3-((2-(piperazin-1-yl)pyrimidin-5-yl)methyl)urea] | 340 nM | 22 nM |
| CC(C)(c1ccc(F)cc1)c1csc(NC(=O)NCc2cnc(N3CCNCC3)nc2)n1 [Example A085, 1-(4-(2-(4-fluorophenyl)propan-2-yl)thiazol-2-yl)-3-((2-(piperazin-1-yl)pyrimidin-5-yl)methyl)urea] | 490 nM | 85 nM |
| COc1ccc(C(C)(C)c2csc(NC(=O)NCc3cnc(N4CCNCC4)nc3)n2)cc1 [Example A086, 1-(4-(2-(4-methoxyphenyl)propan-2-yl)thiazol-2-yl)-3-((2-(piperazin-1-yl)pyrimidin-5-yl)methyl)urea] | 390 nM | 16 nM |
| CCOc1ccc(C(C)(C)c2csc(NC(=O)NCc3cnc(N4CCNCC4)nc3)n2)cc1 [Example A087, 1-(4-(2-(4-ethoxyphenyl)propan-2-yl)thiazol-2-yl)-3-((2-(piperazin-1-yl)pyrimidin-5-yl)methyl)urea] | 1740 nM | 89 nM |
| CC(C)(c1ccc(Br)cc1)c1csc(NC(=O)NCc2cnc(N3CCNCC3)nc2)n1 [Example A088, 1-(4-(2-(4-bromophenyl)propan-2-yl)thiazol-2-yl)-3-((2-(piperazin-1-yl)pyrimidin-5-yl)methyl)urea compound with methane (1:1)] | 1450 nM | 13 nM |
| Cc1nc(N2CCNCC2)ncc1CNC(=O)Nc1nc(C(C)(C)c2ccc(Br)cc2)cs1 [Example A089, 1-(4-(2-(4-bromophenyl)propan-2-yl)thiazol-2-yl)-3-((4-methyl-2-(piperazin-1-yl)pyrimidin-5-yl)methyl)urea] | 1190 nM | 26 nM |
| CC(C)(c1ccc(Br)cc1)c1csc(NC(=O)NCc2ccnc(N3CCNCC3)n2)n1 [Example A090, 1-(4-(2-(4-bromophenyl)propan-2-yl)thiazol-2-yl)-3-((2-(piperazin-1-yl)pyrimidin-4-yl)methyl)urea] | 1110 nM | 178 nM |
| CC(C)(c1ccc(Br)cc1)c1csc(NC(=O)NCc2cnc(N3CCCNCC3)nc2)n1 [Example A091, 1-((2-(1,4-diazepan-1-yl)pyrimidin-5-yl)methyl)-3-(4-(2-(4-bromophenyl)propan-2-yl)thiazol-2-yl)urea] | 3450 nM | 135 nM |
| CC(C)(c1ccc(Br)cc1)c1csc(NC(=O)NCc2ccc(N3CCNCC3)nc2)n1 [Example A092, 1-(4-(2-(4-bromophenyl)propan-2-yl)thiazol-2-yl)-3-((6-(piperazin-1-yl)pyridin-3-yl)methyl)urea] | 570 nM | 20 nM |
| CC(C)(c1ccc(Br)cc1)c1csc(NC(=O)NCc2cnc(N3CCNCC3)cn2)n1 [Example A093, 1-(4-(2-(4-bromophenyl)propan-2-yl)thiazol-2-yl)-3-((5-(piperazin-1-yl)pyrazin-2-yl)methyl)urea] | 320 nM | 9 nM |

| Compound | IC50 [1] | IC50 (ALPK1) |
| --- | --- | --- |
| CC(C)(c1ccc(Br)cc1)c1csc(NC(=O)NCc2cc(N3CCNCC3)ncn2)n1 [Example A094, 1-(4-(2-(4-bromophenyl)propan-2-yl)thiazol-2-yl)-3-((6-(piperazin-1-yl)pyrimidin-4-yl)methyl)urea] | 1290 nM | 73 nM |
| Cc1cc(CNC(=O)Nc2nc(C(C)(C)c3ccc(Br)cc3)cs2)ccc1N1CCNCC1 [Example A096, 1-(4-(2-(4-bromophenyl)propan-2-yl)thiazol-2-yl)-3-(3-methyl-4-(piperazin-1-yl)benzyl)urea] | 1430 nM | 69 nM |
| CC(C)(c1ccc(Br)cc1)c1csc(NC(=O)NCc2ccc(N3CCNCC3)c(N)c2)n1 [Example A098, 1-(3-amino-4-(piperazin-1-yl)benzyl)-3-(4-(2-(4-bromophenyl)propan-2-yl)thiazol-2-yl)urea] | 1070 nM | 31 nM |
| CC(C)(c1ccc(Br)cc1)c1csc(NC(=O)NCc2cnc(N3CCC(N)CC3)nc2)n1 [Example A099, 1-((2-(4-aminopiperidin-1-yl)pyrimidin-5-yl)methyl)-3-(4-(2-(4-bromophenyl)propan-2-yl)thiazol-2-yl)urea] | 450 nM | 13 nM |
| CN1CCC(NC(=O)C2CCC(CNC(=O)Nc3nc(C(C)(C)c4ccc(Br)cc4)cs3)CC2)CC1 (stereo not shown) [Example A100, 4-((3-(4-(2-(4-bromophenyl)propan-2-yl)thiazol-2-yl)ureido)methyl)-N-(1-methylpiperidin-4-yl)cyclohexane-1-carboxamide] | 1370 nM | 72 nM |
| CC(C)(c1ccc(Br)cc1)c1csc(NC(=O)NC(CO)c2ccc(N3CCNCC3)cc2)n1 (stereo not shown) [Example A101, 1-(4-(2-(4-bromophenyl)propan-2-yl)thiazol-2-yl)-3-(2-hydroxy-1-(4-(piperazin-1-yl)phenyl)ethyl)urea] | 1650 nM | 50 nM |
| CC(C)(c1ccc(Br)cc1)c1csc(NC(=O)NCCCN2CCNCC2)n1 [Example A102, 1-(4-(2-(4-bromophenyl)propan-2-yl)thiazol-2-yl)-3-(3-(piperazin-1-yl)propyl)urea] | 710 nM | 90 nM |
| CC(C)(c1ccc(Br)cc1)c1csc(NC(=O)NCc2cnc(N3CCN(CCO)CC3)nc2)n1 [Example A103, 1-(4-(2-(4-bromophenyl)propan-2-yl)thiazol-2-yl)-3-((2-(4-(2-hydroxyethyl)piperazin-1-yl)pyrimidin-5-yl)methyl)urea] | 6200 nM | 97 nM |
| COc1ccc(C(C)(C)c2csc(NC(=O)NCc3cncnc3)n2)cc1 [Example A104, 1-(4-(2-(4-methoxyphenyl)propan-2-yl)thiazol-2-yl)-3-(pyrimidin-5-ylmethyl)urea] | 1690 nM | 223 nM |
| COc1ccc(C(C)(C)c2csc(NC(=O)NCc3cnc(NCCO)c(F)c3)n2)cc1 [Example A105, 1-((5-fluoro-6-((2-hydroxyethyl)amino)pyri-din-3-yl)methyl)-3-(4-(2-(4-methoxyphenyl)propan-2-yl)thiazol-2-yl)urea] | 1020 nM | 144 nM |
| CN(C)C1CCN(c2ccc(CNC(=O)Nc3nc(C(C)(C)c4ccc(Br)cc4)cs3)cn2)C1 (stereo not shown) [Example A106, 1-(4-(2-(4-bromophenyl)propan-2-yl)thiazol-2-yl)-3-((6-(3-(dimethylamino)pyrrolidin-1-yl)pyridin-3-yl)methyl)urea] | 6720 nM | 48 nM |
| CC(C)(c1ccc(Br)cc1)c1csc(NC(=O)NCc2ccc(NCCO)cc2)n1 [Example A108, 1-(4-(2-(4-bromophenyl)propan-2-yl)thiazol-2-yl)-3-(4-((2-hydroxyethyl)amino)ben-zyl)urea] | 820 nM | 244 nM |
| COCCNC(=O)Nc1nc(C(C)(C)c2ccc(OC)cc2)cs1 [Example A110, 1-(2-methoxyethyl)-3-(4-(2-(4-methoxyphenyl)propan-2-yl)thiazol-2-yl)urea] | 940 nM | 193 nM |
| COCCCNC(=O)Nc1nc(C(C)(C)c2ccc(OC)cc2)cs1 [Example A111, 1-(4-(2-(4-methoxyphenyl)propan-2-yl)thiazol-2-yl)-3-(3-methoxypropyl)urea] | 1240 nM | 127 nM |
| CCCN1CCC(NC(=O)c2ccc(CNC(=O)Nc3nc(C(C)(C)c4ccc(OC)cc4)cs3)cn2)CC1 [Example A115, 5-((3-(4-(2-(4-methoxyphenyl)propan-2-yl)thiazol-2-yl)ureido)methyl)-N-(1-propylpiperidin-4-yl)picolinamide] | 830 nM | 19 nM |
| CCCN1CCN(c2ccc(CNC(=O)Nc3nc(C(C)(C)c4ccc(OC)cc4)cs3)cc2C(N)=O)CC1 [Example A116, 5-((3-(4-(2-(4-methoxyphenyl)propan-2-yl)thiazol-2-yl)ureido)methyl)-2-(4-propylpiperazin-1-yl)benzamide] | 720 nM | 72 nM |
